What all share (format): in vivo
Assay [1] relates to Clogmia albipunctata. Description: Test Example 5: entrance inhibition in treated cup, in the dark. Conditions: 30 mg/cup, 2 hours after setting.
The test system of assay [2] is mosquitoes (Culex pipiens pallens). Description: Test Example 2: mosquito entrance inhibition in treated cup, overnight luring. Conditions: 3.0 mg/cup, tacky trap in cup.
Assay [3] has as its system houseflies (Musca domestica). Nature of the assay: Test Example 3: housefly entrance inhibition in treated cup. The conditions noted are these: 100 mg/cup, powder milk and sugar lure.
Assay [4] concerns Meqaselia spiracularis. Nature of the assay: Test Example 4: entrance inhibition in treated cup, maggot rearing medium lure. Conditions: 100 mg/cup, 30 minutes after setting.
Assay [5] deals with Tineola bisselliella. Description: Test Example 6: entrance inhibition in treated carton with wool muslin. Conditions: Tineola bisselliella female adults; 1 mg/cup (carton with wool muslin). From the text:
Insect entrance inhibition rate (%)={(number of insects attracted into the non-treated section−number of insects attracted into the treated section)/number of insects attracted into the non-treated section}×100 A lower end of a 4.5 cm×4.5 cm×4.5 cm carton was cut out to form a 0.5 cm×4.5 cm entrance of insects. A filter paper (2 cm×2 cm) impregnated with an acetone-diluted solution of the test substance was placed in the carton, and a 1 cm×1 cm piece of wool muslin was laid on said filter paper. This carton was set at a corner of a nylon gauze-made cage (20 cm×20 cm×30 cm), and a carton containing a filter paper not treated with hyssop oil and having wool muslin laid thereon was set at the diagonally opposite corner of the cage. About 60 female adults of Tineola bisselliella one to 2 days old after emergence were released in the cage, and the number of the insects which entered the cartons was counted. The test was conducted on a two-replication system.

Assay [6] concerns mosquitoes (Aedes aegypti). Description: Test Example 1: mosquito entrance inhibition in treated cup. Conditions: Aedes aegypti females; 0.3 mg/cup on filter paper; counted 10 minutes after setting; disposal warmer lure. The method, then: A lower side part of a plastic cup (base diameter: 10 cm; top opening diameter: 12 cm; height: 7 cm; capacity: about 650 ml) was cut out to form a 2 cm square entrance of mosquitoes. At the center of said cup was placed a twofold disposal warmer (Kiribai New Hand Warmer, 24-hour type, 13.5×10 cm) as a lure for mosquitoes. A 9 cm-diameter filter paper was treated with a 1 ml solution of the test substance diluted with acetone to a predetermined concentration, and after acetone was air dried, said filter paper was attached to the inside of the cover of said cup with a double-side adhesive tape. This cover was fitted on said cup, allowing the test substance to volatilize and diffuse in the cup for one minute.
In a nylon gauze-made cage (50 cm×50 cm×50 cm) holding about 600 mosquitoes (Aedes aegypti) one to 2 weeks old after emergence (sex ratio=ca. 1:1), 2 said cups were placed cater-cornered across the cage, each of said cups being positioned about 10 cm away from the cage corner, to lure the mosquitoes. […] 10 minutes after setting the cups at said positions in the cage, each cup was taken out of the cage and the number of the female insects attracted into the cup was counted. Based on the obtained result, the insect entrance inhibition rate was calculated from the following equation: […]

`CCN(CC)C(=O)c1cccc(C)c1` [DEET, N,N-diethyl-m-toluamide]: the Entrance inhibition rate in assay [1] was 50%; in assay [2], −10%; in assay [3] it was 34%; in assay [4] it was 34%; in assay [5] it was 9.5%; in assay [6] it was 38%.

Values taken from patent publication US6562359B2, “Pest repellent” (Sumitomo Chemical Company, Ltd., priority 1997, dated 2003).
